In patent publication US20250082764A1, “DRUG FOR TREATING TRIPLE NEGATIVE BREAST CANCER” (HINOVA PHARMACEUTICALS INC., priority 2022, published 2025):

Experiments:
Type in all cases: cell-based
MDA-MB-453 cells [1] = assay: Inhibition of proliferation of MDA-MB-453 cells by single agents (CCK-8 or CTG); settings: co-incubation for 7-10 days; for inhibitory effect on the proliferation of MDA-MB-453 cells (in words): single agent
Procedure: Triple negative breast cancer MDA-MB-453 cells in logarithmic growth stage were inoculated into a 96-well plate at a concentration of 4×10^3 cells/well, and then incubated in an incubator at 37° C., 5% CO2, and saturated humidity for 24 h or 48 h. To the negative control well, was added RPMI 1640 cell medium containing 10% fetal bovine serum in the same volume as the drug. After cultured for 24 h or 48 h, to the 96-well plate, were added AR PROTACs compounds 162, 177, 230, 259, 279, 281, 282, 325, 357, 400, ARV-110, ARV-766 and AR inhibitor HC-1119, respectively. The concentrations of compounds 177, 230, 259, 279, 281, 282, 325, 357, 400, ARV-110, and ARV-766 are 0 μM, 0.002 μM, 0.005 μM, 0.014 μM, 0.041 μM, 0.123 μM, 0.370 μM, 1.111μM, 3.333 μM or 10 μM; while the concentrations of HC-1119 are 0 μM, 1.23 μM, 3.70 μM, 11.11 μM, 33.33 μM or 100 μM.
(§1) After addition of the drugs and co-incubation for 7-10 days, 10 μL of CCK-8 was added to each well, and then the plate was further cultured for 2 h. The absorbance value (OD) of each well was measured using a microplate reader at a wavelength of 450 nm. The survival rate was calculated using Prism software, the relative survival rate=(OD value of drug well/OD value of control well)×100%. Alternatively, 100 μL of medium was removed from each well, and then 50 μL of CTG was added. The plate was shaken in the dark for 2 min, allowed to stand for 10 min, and then measured using a microplate reader in Luminescence mode. Prism software was used to calculate the survival rate, the relative survival rate=(the RLU value of drug well/the RLU value of control well)×100%.

MDA-MB-453 cells [2] = assay: Proliferation of MDA-MB-453 cells, AR PROTAC in combination with PI3K inhibitor Alpelisib (Combination Index); settings: molar ratio of compound to Alpelisib 1:27-9:1; 7 days; synergistic when CI<1
Procedure: (§2) Triple negative breast cancer MDA-MB-453 cells in logarithmic growth stage were inoculated into a 96-well plate at a concentration of 4×10^3 cells/well, and then incubated in an incubator at 37° C., 5% CO2, and saturated humidity for 24 h. To the negative control wells, were added RPMI 1640 cell culture medium containing 10% fetal bovine serum in the same volume as the drug. After cultured for 24 h, to the 96-well plate, were sequentially added AR PROTACs compounds 279, 281, 282, ARV-110, ARV-766 and PI3K inhibitor Alpelisib, respectively.
as §1, with “7” for “7-10”

MDA-MB-453 cells [3] = assay: Proliferation of MDA-MB-453 cells, AR PROTAC in combination with PI3K inhibitor Duvelisib (Combination Index); settings: molar ratio of compound to Duvelisib 1:30-1:1.111; 7-10 days; synergistic when CI<1
Procedure: as §2, with “ARV-110” for “ARV-110, ARV-766”, “Duvelisib,” for “Alpelisib,”
as §1, with “adding” for “addition of”, “co-incubating” for “co-incubation”

MDA-MB-453 cells [4] = assay: Proliferation of MDA-MB-453 cells, AR PROTAC in combination with PI3K inhibitor Idelalisib (Combination Index); settings: molar ratio of compound to Idelalisib 1:270-1:3.333; 7-10 days; synergistic when CI<1
Procedure: as §2, with “Idelalisib,” for “Alpelisib,”
as §1, with “adding” for “addition of”, “co-incubating” for “co-incubation”

MDA-MB-453 cells [5] = assay: Proliferation of MDA-MB-453 cells, AR PROTAC in combination with chemotherapeutic drug Paclitaxel (Combination Index); settings: molar ratio of compound to Paclitaxel 20:1-5000:1; 7 days; synergistic when CI<1
Procedure: as §2, with “ARV-110” for “ARV-110, ARV-766”, “chemotherapeutic drug Paclitaxel,” for “PI3K inhibitor Alpelisib,”
as §1, with “adding” for “addition of”, “co-incubating” for “co-incubation”, “7” for “7-10”

Row | IC50 (MDA-MB-453 cells [1]; Homo sapiens, MDA-MB-453, CCK-8 or CTG readout, read-out: IC50 values against MDA-MB-453 cells) | SMILES | inhibitory effect on the proliferation of MDA-MB-453 cells (in words) (MDA-MB-453 cells [1]) | effect of drug combination with Alpelisib on inhibiting the proliferation of MDA-MB-453 cells (MDA-MB-453 cells [2]) | effect of drug combination with Duvelisib on inhibiting the proliferation of MDA-MB-453 cells (MDA-MB-453 cells [3]) | effect of drug combination with Idelalisib on inhibiting the proliferation of MDA-MB-453 cells (MDA-MB-453 cells [4]) | effect of drug combination with Paclitaxel on inhibiting the proliferation of MDA-MB-453 cells (MDA-MB-453 cells [5])
1 |  | N#Cc1ccc(O[C@H]2CC[C@H](NC(=O)c3ccc(N4CCC(CN5CCC6(CC5)CN(c5ccc7c(c5)C(=O)N(C5CCC(=O)NC5=O)C7=O)C6)CC4)nn3)CC2)cc1Cl (stereo partly shown) [Compound 230] | inhibit the proliferation of MDA-MB-453 cells to varying degrees |  |  |  | 
2 |  | N#Cc1ccc(O[C@H]2CC[C@H](NC(=O)c3ccc(N4CC5(CCN(CC6CCN(c7ccc8c(c7)C(=O)N(C7CCC(=O)NC7=O)C8=O)CC6)CC5)C4)nn3)CC2)cc1Cl (stereo partly shown) [Compound 282] | inhibit the proliferation of MDA-MB-453 cells to varying degrees | synergistic effect | synergistic effect | synergistic effect | synergistic effect
3 |  | N#Cc1ccc(O[C@H]2CC[C@H](NC(=O)c3cnc(N4C[C@@H]5[C@@H](CN6CCN(c7ccc8c(c7)C(=O)N(C7CCC(=O)NC7=O)C8=O)CC6)[C@@H]5C4)cn3)CC2)cc1Cl (stereo partly shown) [Compound 177] | inhibit the proliferation of MDA-MB-453 cells to varying degrees |  |  |  | 
4 |  | N#Cc1ccc(O[C@H]2CC[C@H](NC(=O)c3cnc(N4CCC(CN5CCC6(CC5)CN(c5ccc7c(c5)C(=O)N(C5CCC(=O)NC5=O)C7=O)C6)CC4)nn3)CC2)cc1Cl (stereo partly shown) [Compound 279] | inhibit the proliferation of MDA-MB-453 cells to varying degrees | synergistic effect | synergistic effect | synergistic effect | synergistic effect
5 |  | N#Cc1ccc(O[C@H]2CC[C@H](NC(=O)c3ccc(N4CCC(CN5CCN(c6cc7c(cc6F)C(=O)N(C6CCC(=O)NC6=O)C7=O)CC5)CC4)nn3)CC2)cc1Cl (stereo partly shown) [ARV-110, reference compound] | inhibit the proliferation of MDA-MB-453 cells to varying degrees | synergistic effect | synergistic effect | synergistic effect | synergistic effect
6 | ≤ 2000 nM | CC1(C)[C@H](Oc2ccc(C#N)c(Cl)c2)C(C)(C)[C@H]1N1Cc2nc(C#C[C@H]3C[C@H](N4CCN(c5cc6c(cc5F)C(=O)N(C5CCC(=O)NC5=O)C6=O)CC4)C3)ccc2C1=O (stereo partly shown) [Compound 357] | inhibit the proliferation of MDA-MB-453 cells to varying degrees |  |  |  | 
7 |  | COc1cc(O[C@H]2C(C)(C)[C@H](N3Cc4nc(C#C[C@H]5CC[C@H](N6CCN(c7ccc8c(c7)C(=O)N(C7CCC(=O)NC7=O)C8=O)CC6)CC5)ccc4C3=O)C2(C)C)ccc1C#N (stereo partly shown) [Compound 400] | inhibit the proliferation of MDA-MB-453 cells to varying degrees |  |  |  | 
8 |  | CC1(C)[C@H](Oc2ccc(C#N)c(Cl)c2)C(C)(C)[C@H]1N1Cc2nc(C#C[C@H]3CC[C@H](N4CCN(c5ccc6c(c5)C(=O)N(C5CCC(=O)NC5=O)C6=O)CC4)CC3)ccc2C1=O (stereo partly shown) [Compound 325] | inhibit the proliferation of MDA-MB-453 cells to varying degrees |  |  |  | 
9 |  | N#Cc1ccc(O[C@H]2CC[C@H](NC(=O)c3ccc(N4CCC(N5CCC6(CC5)CN(c5ccc7c(c5)C(=O)N(C5CCC(=O)NC5=O)C7=O)C6)CC4)nn3)CC2)cc1Cl (stereo partly shown) [Compound 281] | inhibit the proliferation of MDA-MB-453 cells to varying degrees | synergistic effect | synergistic effect | synergistic effect | synergistic effect
10 |  | COc1cc(O[C@H]2C(C)(C)[C@H](NC(=O)c3ccc(N4CCC(CN5CCN(c6ccc(C(=O)N[C@H]7CCC(=O)NC7=O)c(F)c6)CC5)CC4)cc3)C2(C)C)ccc1C#N [ARV-766, reference compound] | inhibit the proliferation of MDA-MB-453 cells to varying degrees | synergistic effect |  | synergistic effect | 
11 |  | N#Cc1ccc(O[C@H]2CC[C@H](NC(=O)c3ccc(N4CC5CN(CC6CCN(c7cc8c(cc7F)C(=O)N(C7CCC(=O)NC7=O)C8=O)CC6)CC5C4)nn3)CC2)cc1Cl (stereo partly shown) [Compound 259] | inhibit the proliferation of MDA-MB-453 cells to varying degrees |  |  |  | 
12 |  | [2H]C([2H])([2H])NC(=O)c1ccc(N2C(=S)N(c3ccc(C#N)c(C(F)(F)F)c3)C(=O)C2(C)C)cc1F [HC-1119, reference compound] | weak inhibitory effect |  |  |  | 
